This is an account of results in patent publication US7736638B2, “Interleukin-15 antagonist peptide” (Centro de Ingenieria Genetica y Biotecnologia, priority 2004, dated 2010).

Entries after “also recorded” stand apart in the source; their conditions may differ. Ends that are not written are not given here.

One assay deals with IL-15Rα-Fc (Homo sapiens, UniProt Q13261). Nature of the assay: IL-15 peptide spot mapping on cellulose filter, binding of IL-15Rα-Fc. Particulars: 10-mer peptides on cellulose membrane; IL-15 α-Receptor at 5 μg/mL; blue/violet color = positive; listed as 8. The method, then:
To identify IL-15 regions involved in IL-15Rα binding, the peptide spot synthesis approach was used as previously described Frank et. al. The derivation of Whatman 540 paper was carried out estherifying the first anchor component, Fmoc-β-Ala-OH, using N,N′-Diisopropylcarbodiimide (DIC) and N-methylimidazole (NMI) in dry N,N-dimethylformamide (DMF). The spot array on the cellulose membrane was defined anchoring the Fmoc-β-Ala-OH on the previously marked positions, according to the required number of 10-mer peptides (22 peptides, overlapping in 5 residues, 114 amino acids of IL-15 sequence). Besides, a non-related 10 amino acids peptide was synthesized on spot 23 and also on spot 24 only Fmoc-β-Ala-OH was anchoring, both as controls. For the assembly of all these molecules, the standard Fmoc-/tBu chemistry was used. After the final cycle of synthesis, the N-terminus and side chains of all peptides were de-protected.
Cellulose sheet was soaked in ethanol to prevent possible hydrophobic interactions between the peptides on it. Ethanol was exchanged against Tris-buffer saline (TBS) (150 mM NaCl, 10 mM Tris, pH 7.6) by sequential washing. Nonspecific binding was blocked by incubating membrane overnight in 10 mL of TBS blocking buffer (5% Powdered milk in TBS). […]

The target in assay [1] is T1, IL-15Rα-Fc fusion protein (R&D 147-IR) (Homo sapiens, UniProt Q13261).
T1 construct: purchased R&D 147-IR
T1 sequence (Q13261 with tags, fused parts or gaps limits assumed): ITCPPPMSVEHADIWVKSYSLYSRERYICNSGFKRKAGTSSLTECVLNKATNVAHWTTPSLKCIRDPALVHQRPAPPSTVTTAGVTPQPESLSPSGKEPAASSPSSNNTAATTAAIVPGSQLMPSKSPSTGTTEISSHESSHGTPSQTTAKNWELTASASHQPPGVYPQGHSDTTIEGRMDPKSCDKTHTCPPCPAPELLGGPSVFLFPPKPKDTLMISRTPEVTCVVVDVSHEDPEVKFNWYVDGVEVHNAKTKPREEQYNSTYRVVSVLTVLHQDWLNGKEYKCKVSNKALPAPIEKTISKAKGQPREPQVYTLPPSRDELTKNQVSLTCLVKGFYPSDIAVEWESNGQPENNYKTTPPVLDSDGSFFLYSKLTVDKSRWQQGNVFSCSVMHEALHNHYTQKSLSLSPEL
As to the kind of experiment: Colorimetric assay in Tentagel S beads, peptide binding to IL-15Rα. Particulars: resin-bound peptide, IL-15Rα-Fc at 5 μg/mL. The method, then: The resin NH2-Tentagel-S (0.24 mmol/g) was washed several times with di-chlorometane (DCM) and methanol. Then, it was incubated in a trifluoroacetic acid (TFA) solution 30% for 10 minutes; washed several times with DCM and incubated in di-isopropilethilamine (DIEA) 5% in DCM for 1 minute. This procedure activated the NH2 groups for synthesis. Later, it was washed with DCM and incubated in di-methylformamide (DMF) for 5 minutes to synthesize the peptide. The conventional Fmoc/tBu strategy of synthesis was used. Coupling reactions were followed by ninhidrine test. Once peptide Sec. No.1 sequence was completed, amino acids side chains were de-protected, leaving it anchored by its C-terminal to the resin.
Resin beads with anchored peptide were several times washed with saline solution (PBS). Non specific interactions were blocked with BSA (1%) in PBS for 1 hour at RT. Then, they were incubated with IL-15Rα-Fc fusion protein (R&D 147-IR) at 5 μg/mL in BSA (1%/PBS) for 16 hours at 4° C. Later, beads were washed in PBS three fold for 5 minutes with shaking and then incubated with anti-Fc IgG human-phosphatase conjugate diluted 1:25000 in BSA (1%/PBS) for three hours at RT. They were extensively washed with a saline solution (TBS/Tween-20, 1%) and incubated with BCIP (0.45 mg/mL) in substrate solution (100 mM Tris, pH 8.9; 100 mM NaCl; 2 mM MgCl2) for approximately 30 minutes. […]

Assay [2] relates to IL-15-induced proliferation of CTLL-2 cells. Nature of the assay: CTLL-2 proliferation assay with human IL-15 (MTT staining). Format: cell-based. Particulars: fixed peptide concentration 260 μM. The method, then: The cytokine-dependent cell line CTLL-2 proliferates in presence of IL-15. IL-15 bound molecules impairing receptor depending signal transduction would inhibit this cell line proliferation. To evaluate the neutralizing capacity the peptide of the present invention, serial dilutions of them were done in 96 well plates (Costar, USA) in 25 μL volume of RPMI medium (Gibco) supplemented with 10% fetal bovine serum (Gibco). Previously washed CTLL-2 cells were added to 5×10^3 cells/well and it was incubated for 30 min. Then, 300 pg of IL-15 were added to each well. Plate was incubated for 72 h at 5% CO2 and 37° C. […] We also evaluated the antagonist effect of 260 μM of this peptide at different IL-15 concentrations (FIG. 3a).

Assay [3] deals with TNFα-induced apoptosis in L929 cells. Nature of the assay: Apoptosis induction assay in L929 cells (DNA fragmentation assay). Format: cell-based. Particulars: TNFα 100 ng/mL, peptide 260 μM, 24 h. The method, then:
The DNA Fragmentation Assay allows to determine the amount of DNA that is degraded upon treatment of cells with TNF-alpha. The cells' DNA is radioactively labeled by growing the cells in presence of 3H-Thymidine so that radioactive 3H-Thymidine is incorporated into the DNA. After 24 h the cells were treated with Tripsin/EDTA, washed and seeded at 5000 cells per well in a 96 well plate. Then, the labeled cells were incubated with TNFα (100 ng/mL), IL-15 (100 ng/mL), peptides (260 μM) or combinations of TNFα with different peptides.
During this incubation the added agent (e.g. TNFα induces cells to die by apoptosis and consequently the fragmentation of DNA while the DNA of untreated cells remains intact). After 24 h the cells were harvested: during harvesting, the cells were washed out of the wells of the 96 well plate with bidestilated water: the cells and organelles burst and the cell's DNA is set free. The cell fragments and DNA are passed through a filter membrane (glassfiber). Only particles of smaller than 1,5 μm can pass the filter. […] The filter membrane was dried and the amount of radioactivity (what corresponds to the amount of intact DNA) counted in a scintillation counter. The percentage of DNA fragmentation was calculated by comparing the counted radioactivity (counts per minute=cpm) of cells that were not treated with the cpm in cells that were treated with agent.

Chain of IL-15Rα-Fc (Q13261 with tags, fused parts or gaps limits assumed): as above

On to KVTAMKCFLL-NH2 [SEQ ID NO: 1], for which the “recognition of the peptide spot by IL-15Rα-Fc” value on IL-15Rα-Fc was “recognizes; also recorded: recognition”. In addition, the “color development in beads incubated with IL-15Rα-Fc” value in assay [1] was “intense blue color”. Besides, the “color development in beads incubated with IL-15Rα-Fc in presence of an excess of human IL-15” value in assay [1] (excess of IL-15 (competition)) is given as “did not observed color”. Moreover, the “antagonist effect of the peptide at different IL-15 concentrations” value in assay [2] is recorded as “dependent on IL-15 doses”. In assay [3], the “protection from TNFα-induced apoptosis (DNA fragmentation)” value is “protected form TNF induced apoptosis”.
